In ChEMBL document CHEMBL1146246, “Synthesis and structure-activity relationship of novel RXR antagonists: orally active anti-diabetic and anti-obesity agents” (Bioorg Med Chem Lett, 2007):
Activity calls are given as the source filed them. The rule behind the calls is not given here.

What was measured:
[1] = target: T1, Retinoic acid receptor RXR-alpha (Homo sapiens, UniProt P19793); assay: Inhibition of LG-100268-induced RXRalpha transactivation
T1 sequence (P19793 whole entry): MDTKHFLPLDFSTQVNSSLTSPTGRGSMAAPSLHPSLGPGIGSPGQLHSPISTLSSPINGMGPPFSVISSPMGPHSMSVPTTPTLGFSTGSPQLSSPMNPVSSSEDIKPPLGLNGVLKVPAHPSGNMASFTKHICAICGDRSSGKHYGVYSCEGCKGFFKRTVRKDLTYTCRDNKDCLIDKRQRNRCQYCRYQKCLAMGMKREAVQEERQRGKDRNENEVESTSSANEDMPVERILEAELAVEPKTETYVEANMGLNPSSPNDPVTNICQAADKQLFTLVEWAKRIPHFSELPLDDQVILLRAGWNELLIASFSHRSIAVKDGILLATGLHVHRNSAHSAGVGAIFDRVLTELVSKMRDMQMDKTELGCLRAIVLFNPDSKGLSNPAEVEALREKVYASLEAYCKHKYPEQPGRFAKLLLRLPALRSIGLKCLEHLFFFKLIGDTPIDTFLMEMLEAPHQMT

[2] = target: T1, Retinoic acid receptor RXR-alpha; assay: Inhibition of 9-cis-retinoic acid-induced RXRalpha transactivation
[3] = organism: Mus musculus; assay: Decrease in body weight gain in obese/diabetic KKAy mouse; assay type: functional, organism-based
[4] = organism: Mus musculus; assay: Decrease in plasma glucose concentration in obese/diabetic KKAy mouse; assay type: ADME, organism-based
[5] = organism: Mus musculus; assay: Decrease in plasma insulin concentration in obese/diabetic KKAy mouse; assay type: ADME, organism-based

| IC50 [1] [nM] | IC50 [2] [nM] | Activity [4] | Activity [5] | SMILES | Activity [3] |
| --- | --- | --- | --- | --- | --- |
| 360 | 170 | – | – | COc1ccc(S(=O)(=O)c2ccc3c(c2)N=C(c2ccc(C(=O)O)cc2)c2cc4c(cc2N3C)C(C)(C)CCC4(C)C)cc1 | – |
| 410 | 190 | – | – | CCCCNS(=O)(=O)c1ccc2c(c1)N=C(c1ccc(C(=O)O)cc1)c1cc3c(cc1N2C)C(C)(C)CCC3(C)C | – |
| 3300 | 3000 | – | – | CCN1c2ccc(C(C)=O)cc2N=C(c2ccc(C(=O)O)cc2F)c2cc3c(cc21)C(C)(C)CCC3(C)C | – |
| 1000 | 450 | – | – | CN1c2ccc(S(=O)(=O)N3CCOCC3)cc2N=C(c2ccc(C(=O)O)cc2)c2cc3c(cc21)C(C)(C)CCC3(C)C | – |
| 1900 | 1000 | – | – | CN1CCN(S(=O)(=O)c2ccc3c(c2)N=C(c2ccc(C(=O)O)cc2)c2cc4c(cc2N3C)C(C)(C)CCC4(C)C)CC1 | – |
| 1400 | 780 | – | – | COc1ccc(CS(=O)(=O)c2ccc3c(c2)N=C(c2ccc(C(=O)O)cc2)c2cc4c(cc2N3C)C(C)(C)CCC4(C)C)cc1 | – |
| 1300 | 1300 | – | – | CNS(=O)(=O)c1ccc2c(c1)N=C(c1ccc(C(=O)O)cc1)c1cc3c(cc1N2C)C(C)(C)CCC3(C)C | – |
| 1700 | 1100 | – | – | CC(=O)c1ccc2c(c1)N=C(c1ccc(C(=O)O)c(F)c1)c1cc3c(cc1N2C)C(C)(C)CCC3(C)C | – |
| 1600 | 720 | – | – | COc1ccc(Sc2ccc3c(c2)N=C(c2ccc(C(=O)O)cc2)c2cc4c(cc2N3C)C(C)(C)CCC4(C)C)cc1 | – |
| 240 | 130 | – | – | CN1c2ccc(S(=O)(=O)c3ccc(OC(F)(F)F)cc3)cc2N=C(c2ccc(C(=O)O)cc2)c2cc3c(cc21)C(C)(C)CCC3(C)C | – |
| 3000 | 2000 | – | – | CSc1ccc2c(c1)N=C(c1ccc(C(=O)O)cc1)c1cc3c(cc1N2C)C(C)(C)CCC3(C)C | – |
| 1600 | 670 | – | – | CN1c2ccc(SCc3ccc(Cl)cc3)cc2N=C(c2ccc(C(=O)O)cc2)c2cc3c(cc21)C(C)(C)CCC3(C)C | – |
| 480 | 320 | – | – | CCN1c2ccc(C#N)cc2N=C(c2ccc(C(=O)O)cc2)c2cc3c(cc21)C(C)(C)CCC3(C)C | – |
| 960 | 460 | – | – | CN1c2ccc(S(=O)(=O)Nc3ccc(OC(F)(F)F)cc3)cc2N=C(c2ccc(C(=O)O)cc2)c2cc3c(cc21)C(C)(C)CCC3(C)C | – |
| 1100 | 890 | – | – | CC(=O)c1ccc2c(c1)N=C(c1ccc(C(=O)O)cc1)c1cc3c(cc1N2C)C(C)(C)CCC3(C)C | – |
| 4900 | 5500 | – | – | COc1ccc(CSc2ccc3c(c2)N=C(c2ccc(C(=O)O)cc2)c2cc4c(cc2N3C)C(C)(C)CCC4(C)C)cc1 | – |

| IC50 [1] [nM] | IC50 [2] [nM] | Activity [4] | Activity [5] | SMILES | Activity [3] |
| --- | --- | --- | --- | --- | --- |
| 1200 | 520 | – | – | CN1c2ccc(C#N)cc2N=C(c2ccc(C(=O)O)c(F)c2)c2cc3c(cc21)C(C)(C)CCC3(C)C | – |
| 7000 | 3900 | – | – | CN1c2ccc(N3CCOCC3)cc2N=C(c2ccc(C(=O)O)cc2)c2cc3c(cc21)C(C)(C)CCC3(C)C | – |
| 950 | 420 | – | – | CN1c2ccc(S(=O)(=O)Cc3ccc(Cl)cc3)cc2N=C(c2ccc(C(=O)O)cc2)c2cc3c(cc21)C(C)(C)CCC3(C)C | – |
| 2100 | 2100 | – | – | CCCN1c2ccc(C#N)cc2N=C(c2ccc(C(=O)O)cc2)c2cc3c(cc21)C(C)(C)CCC3(C)C | – |
| 11000 | – | – | – | CN1CCN(c2ccc3c(c2)N=C(c2ccc(C(=O)O)cc2)c2cc4c(cc2N3C)C(C)(C)CCC4(C)C)CC1 | – |
| 1000 | 390 | – | – | CN1c2ccc(Sc3ccc(OC(F)(F)F)cc3)cc2N=C(c2ccc(C(=O)O)cc2)c2cc3c(cc21)C(C)(C)CCC3(C)C | – |
| 4600 | – | – | – | CC(=O)c1ccc2c(c1)N=C(c1ccc(C(=O)O)cc1F)c1cc3c(cc1N2C)C(C)(C)CCC3(C)C | – |
| 1700 | 1400 | – | – | CN1c2ccc(S(C)(=O)=O)cc2N=C(c2ccc(C(=O)O)cc2)c2cc3c(cc21)C(C)(C)CCC3(C)C | – |
| 970 | 790 | – | – | CCN1c2ccc(C(C)=O)cc2N=C(c2ccc(C(=O)O)cc2)c2cc3c(cc21)C(C)(C)CCC3(C)C | – |
| 1100 | 530 | – | – | CCN1c2ccc(C#N)cc2N=C(c2ccc(C(=O)O)cc2F)c2cc3c(cc21)C(C)(C)CCC3(C)C | – |
| 770 | 500 | Active | Active | CCN1c2ccc(C#N)cc2N=C(c2ccc(C(=O)O)c(F)c2)c2cc3c(cc21)C(C)(C)CCC3(C)C | Active |
| 1000 | 450 | – | – | CN1c2ccc(S(=O)(=O)N3CCCC3)cc2N=C(c2ccc(C(=O)O)cc2)c2cc3c(cc21)C(C)(C)CCC3(C)C | – |
| 820 | 430 | – | – | CN1c2ccc(C#N)cc2N=C(c2ccc(C(=O)O)cc2)c2cc3c(cc21)C(C)(C)CCC3(C)C | – |
| 2200 | 2000 | – | – | CN1c2ccc(S(=O)(=O)N(C)C)cc2N=C(c2ccc(C(=O)O)cc2)c2cc3c(cc21)C(C)(C)CCC3(C)C | – |
| 920 | 450 | – | – | CCCS(=O)(=O)c1ccc2c(c1)N=C(c1ccc(C(=O)O)cc1)c1cc3c(cc1N2C)C(C)(C)CCC3(C)C | – |
